From PubChem BioAssay AID2060486 (Molecular Pharmacology Branch, DTP, NCI, 2025)

System: IGROV1 complex spheroids (HUVEC, MSC), viability % test/control
Assay: Anticancer human tumor IGROV1 cell line growth inhibition [GQUAD];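 also: spheroids exposed to compounds for 7 days before readout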
Conditions: for IC50: curve of first compound; for viability, T/C: stronger effect = lower value
Excerpt: DNA G-quadruplex Stabilizer Agents in Combinations in Complex Spheroids
A high-throughput screen of multi-cell type tumor spheroids was designed to identify active combinations of DNA G-quadruplex stabilizer agents and targeted small molecules. Complex spheroids include a stromal component modeled by human endothelial cells (HUVEC) and fibroblasts modeled by human mesenchymal stem cells (MSCs). The concentration ranges selected for each drug and investigational agent were based upon clinically achievable concentrations if the clinical Cmax of the agent was known.
Compounds. The drugs and investigational agents: pidnarulex (CX-5461; NSC782164), APTO-253 (NSC789042), BRACO-19 (NSC847499), peposertib (NSC802822), ceralasertib (NSC780249), elimusertib (NSC800525), camonsertib (NSC841442), AZD-1390 (NSC803789), olaparib (NSC753686), talazoparib (NSC767125), ART-558 (NSC835418), sotorasib (NSC818433), MRTX-1133 (NSC836407), SN-38 (NSC673596), topotecan (NSC609699), etoposide (NSC141540), doxorubicin (NSC123127), gemcitabine (NSC613327), 5-fluorouracil (NSC19893), paclitaxel (NSC125973), vemurafenib (NSC761431), panobinostat (NSC761190), R-306465 (JNJ-16241199; NSC773264), adavosertib (NSC754352), TP-3654 (NSC805149), carboplatin (NSC241240), KSQ-4279 (NSC840948), and staurosporine (NSC755774) were obtained from the National Cancer Institute (NCI) Developmental Therapeutics Program Chemical Repository (34). The FDA-approved anticancer drug set is available from the NCI Developmental Therapeutics Program. […] The stock solutions were prepared in dimethyl sulfoxide (DMSO, Sigma-Aldrich, St. Louis, MO, cat. D2650) at 800-fold the tested concentration and stored at -70 degrees C prior to their use. All drugs and investigational agents were tested over a range starting from a high concentration at or near the clinical Cmax and decreasing in half-log increments. If the clinical Cmax for an agent had not been determined, the highest concentration tested was 10 microM.
2.3 Cell Culture. All cells were maintained in an incubator at 37 degrees C and 5% CO2 with 95% humidity. The PDC lines were cultured according to standard operating procedures established by the NCI PDMR. All PDCs were thawed and cultured in Matrigel-coated flasks prepared with a working solution of 1X Ham's F-12 nutrient mix, without supplementation (Invitrogen, cat. 11765054), 100 U/mL penicillin-streptomycin (Invitrogen, cat. 15140122), and 2.5% Matrigel (Corning Inc., cat. 354248) for the first three passages. The 857933-349-R-J2-PDC line was cultured in 6C/Colon 1B media, which includes advanced DMEM/F-12 (Thermo Fisher Scientific, cat. 12634028), 10 mM HEPES (Thermo Fisher Scientific, cat. 15630080), 1X GlutaMAX supplement (Thermo Fisher Scientific, cat. 35050061), 0.1 mg/mL primocin (InvivoGen, cat. ant-pm-2), 10% defined fetal bovine serum, heat inactivated (HyClone Laboratories Inc., cat. SH30070.03HI), 50% L-WRN conditioned media (ATCC, cat. CRL-3276), 1.25 mM N-Acetyl-L-cysteine (Sigma-Aldrich, cat. A9165), 10 mM nicotinamide (Sigma-Aldrich, cat. N0636), 1X B-27 supplement (Thermo Fisher Scientific, cat. 17504044), 1X N-2 supplement (Thermo Fisher Scientific, cat. 17502048), 10 microM Y-27632 dihydrochloride (Tocris Bioscience, cat. 1254), and 50 ng/mL human EGF recombinant protein (Thermo Fisher Scientific, cat. PHG0311). The 485176-168-R4-J1-PDC line was cultured in Panc media, which includes all 6C/Colon 1B media components plus 100 ng/mL human FGF-10 (Thermo Fisher Scientific, cat. 100-26), 500 nM SB-431542 (Selleckchem, cat. S1067), and gastrin (Tocris, cat. 3006).
[…]

[1] = second compound 0.0316 µM, first compound 0.0316 µM
[2] = second compound 0.0316 µM, first compound 0.316 µM
[3] = second compound 0.1 µM, first compound 0.0316 µM
[4] = second compound 0.1 µM, first compound 0.316 µM
[5] = second compound 0.316 µM, first compound 0.0316 µM
[6] = second compound 0.316 µM, first compound 0.316 µM
[7] = second compound 1 µM, first compound 0.0316 µM
[8] = second compound 1 µM, first compound 0.316 µM
[9] = second compound 3.16 µM, first compound 0.0316 µM
[10] = second compound 3.16 µM, first compound 0.316 µM
[11] = second compound 10 µM, first compound 0.0316 µM
[12] = second compound 10 µM, first compound 0.316 µM

CC1COCCN1c1cc(-c2ccnn2C)c2ccnc(-c3ccn[nH]3)c2n1 (centres undefined) + Cc1[nH]c2ccc(F)cc2c1-c1nc2c3cccnc3c3ncccc3c2[nH]1
IC50 (second compound 0.0316 µM): 63.5 nM
IC50 (second compound 0.1 µM): 52.6 nM
IC50 (second compound 0.316 µM): < 31.6 nM
IC50 (second compound 1 µM): < 31.6 nM
IC50 (second compound 3.16 µM): < 31.6 nM
IC50 (second compound 10 µM): < 31.6 nM
viability, T/C [1]: 81.2%
viability, T/C (second compound 0.0316 µM, first compound 0.1 µM): 29.2%
viability, T/C [2]: 13.1%
viability, T/C (second compound 0.0316 µM, first compound 1 µM): 5.35%
viability, T/C (second compound 0.0316 µM, first compound 3.16 µM): 5.85%
viability, T/C (second compound 0.0316 µM, first compound 10 µM): 3.72%
viability, T/C [3]: 66.3%
viability, T/C (second compound 0.1 µM, first compound 0.1 µM): 29.4%
viability, T/C [4]: 12.7%
viability, T/C (second compound 0.1 µM, first compound 1 µM): 6.46%
viability, T/C (second compound 0.1 µM, first compound 3.16 µM): 4.05%
viability, T/C (second compound 0.1 µM, first compound 10 µM): 3.93%
viability, T/C [5]: 48.1%
viability, T/C (second compound 0.316 µM, first compound 0.1 µM): 14.3%
viability, T/C [6]: 5.71%
viability, T/C (second compound 0.316 µM, first compound 1 µM): 5.18%
viability, T/C (second compound 0.316 µM, first compound 3.16 µM): 4.33%
viability, T/C (second compound 0.316 µM, first compound 10 µM): 3.75%
viability, T/C [7]: 3.38%
viability, T/C (second compound 1 µM, first compound 0.1 µM): 3.29%
viability, T/C [8]: 4.19%
viability, T/C (second compound 1 µM, first compound 1 µM): 4.05%
viability, T/C (second compound 1 µM, first compound 3.16 µM): 4.41%
viability, T/C (second compound 1 µM, first compound 10 µM): 2.28%
viability, T/C [9]: 3.79%
viability, T/C (second compound 3.16 µM, first compound 0.1 µM): 4.74%
viability, T/C [10]: 3.3%
viability, T/C (second compound 3.16 µM, first compound 1 µM): 2.73%
viability, T/C (second compound 3.16 µM, first compound 3.16 µM): 3.37%
viability, T/C (second compound 3.16 µM, first compound 10 µM): 1.52%
viability, T/C [11]: 4.11%
viability, T/C (second compound 10 µM, first compound 0.1 µM): 3.77%
viability, T/C [12]: 3.3%
viability, T/C (second compound 10 µM, first compound 1 µM): 3.47%
viability, T/C (second compound 10 µM, first compound 3.16 µM): 2.98%
viability, T/C (second compound 10 µM, first compound 10 µM): 2.3%

Cn1ncnc1[C@H]1c2n[nH]c(=O)c3cc(F)cc(c23)N[C@@H]1c1ccc(F)cc1 + Cc1[nH]c2ccc(F)cc2c1-c1nc2c3cccnc3c3ncccc3c2[nH]1
IC50 (second compound 0.0316 µM): 149 nM
IC50 (second compound 0.1 µM): 73.5 nM
IC50 (second compound 0.316 µM): 53 nM
IC50 (second compound 1 µM): < 0.999 nM
IC50 (second compound 3.16 µM): < 0.999 nM
IC50 (second compound 10 µM): < 0.999 nM
viability, T/C (second compound 0.0316 µM, first compound 0.000999 µM): 105%
viability, T/C (second compound 0.0316 µM, first compound 0.00316 µM): 79.6%
viability, T/C (second compound 0.0316 µM, first compound 0.00999 µM): 86.7%
viability, T/C [1]: 62.3%
viability, T/C (second compound 0.0316 µM, first compound 0.0999 µM): 67.7%
viability, T/C [2]: 33.4%
viability, T/C (second compound 0.1 µM, first compound 0.000999 µM): 100%
viability, T/C (second compound 0.1 µM, first compound 0.00316 µM): 80.1%
viability, T/C (second compound 0.1 µM, first compound 0.00999 µM): 83%
viability, T/C [3]: 48.9%
viability, T/C (second compound 0.1 µM, first compound 0.0999 µM): 53.1%
viability, T/C [4]: 32%
viability, T/C (second compound 0.316 µM, first compound 0.000999 µM): 96.4%
viability, T/C (second compound 0.316 µM, first compound 0.00316 µM): 81.9%
viability, T/C (second compound 0.316 µM, first compound 0.00999 µM): 68.9%
viability, T/C [5]: 54.8%
viability, T/C (second compound 0.316 µM, first compound 0.0999 µM): 46.5%
viability, T/C [6]: 27.5%
viability, T/C (second compound 1 µM, first compound 0.000999 µM): 5.11%
viability, T/C (second compound 1 µM, first compound 0.00316 µM): 4.97%
viability, T/C (second compound 1 µM, first compound 0.00999 µM): 5.21%
viability, T/C [7]: 4.33%
viability, T/C (second compound 1 µM, first compound 0.0999 µM): 4.79%
viability, T/C [8]: 4.17%
viability, T/C (second compound 3.16 µM, first compound 0.000999 µM): 4.43%
viability, T/C (second compound 3.16 µM, first compound 0.00316 µM): 4.31%
viability, T/C (second compound 3.16 µM, first compound 0.00999 µM): 4.37%
viability, T/C [9]: 4.14%
viability, T/C (second compound 3.16 µM, first compound 0.0999 µM): 4.64%
viability, T/C [10]: 3.96%
viability, T/C (second compound 10 µM, first compound 0.000999 µM): 4.02%
viability, T/C (second compound 10 µM, first compound 0.00316 µM): 3.63%
viability, T/C (second compound 10 µM, first compound 0.00999 µM): 5.14%
viability, T/C [11]: 4.68%
viability, T/C (second compound 10 µM, first compound 0.0999 µM): 4.53%
viability, T/C [12]: 4.33%
